Data reported in patent US6689803B2, “Compositions and methods for treating surgical adhesions” (Angiotech Pharmaceuticals, Inc., priority 1996, dated 2004).

Columns and labels:
neutrophils = experiment: Neutrophil degranulation assay (myeloperoxidase, lysozyme release); format: cell-based, human
Method: Neutrophil viability and purity was always greater than 90%.
One and a half milliliter Eppendorf tubes containing either 25 mg of CPPD or 1 mg of zymosan were preheated to 37° C. 0.5 ml of cells at 37° C. were added followed by vigorous shaking to initiate the reactions. At appropriate times, tubes were centrifuged at 10,000 g for 10 seconds and 0.4 ml of supernatant was stored at −20° C. for later assay.
Lysozyme was measured by the decrease in absorbance at 450 nm of a Micrococcus lysodeikticus suspension. Briefly, Micrococcus lysodeikticus was suspended at 0.1 mg/ml in 65 mM potassium phosphate buffer, pH 6.2 and the absorbance at 450 nm was adjusted to 0.7 units by dilution. The crystal (or zymosan) and cell supernatant (100 μl) was added to 2.5 ml of the Micrococcus suspension and the decrease in absorbance was monitored. Lysozyme standards (chicken egg white) in the 0 to 2000 units/ml range were prepared and a calibration graph of lysozyme concentration against the rate of decrease in the absorbance at 450 nm was obtained.
Myeloperoxidase (MPO) activity was measured by the increase in absorbance at 450 nm that accompanies the oxidation of dianisidine. 7.8 mg of dianisidine was dissolved in 100 ml of 0.1 M citrate buffer, pH 5.5 at […] by sonication. To a 1 ml cuvette, 0.89 ml of the dianisidine solution was added, followed by 50 μl of 1% Triton x 100, 10 μl of a 0.05% hydrogen peroxide in water solution and 50 μl of crystal-cell supernatant. MPO activity was determined from the change in absorbance (450 nm) per minute, Delta Å 450, using the following equation: […]

NF-κB = NF-κB activity (cell-based) reporter assay in NIH-3T3; set-up: species or system murine; conditions: 6-hour and 24-hour treatments
Method: IL-1 and TNF were both identified as being proinflammatory cytokines that activate the transcription of genes driven by a transcription factor named NF-κB also involved in inflammatory processes. The inflammatory effect of IL-1 and TNF can therefore be indirectly assessed by means of a reporter gene assay (NF-κB) responding to IL-1 and TNF stimulation.
On day one, 5×10^4 NIH-3T3 (murine fibroblast), stably transfected with a NF-κB reporter construct (Luciferase, Promega Corp.), were plated per well (24-well plate). Once confluent (on day 3-4), cells were starved by replacing the complete medium with 1 ml of serum-free medium. Following a 24-hour starvation, cells were treated with various concentrations of anti-microtubule agents 6 hours prior to the addition of IL-1 (20 ng/ml) and TNF (20 ng/ml). Cells were exposed to IL-1 and TNF for 1 hour and 16 hours and NF-κB activity measured 24 hours later. On day five, the medium was discarded and the cells were rinsed once with PBS. Cells were then extracted for 15 minutes with 250 μl of lysis buffer (Promega Corp., Wisconsin). NF-κB transcriptional activity was assessed by adding 25 μl of luciferase substrate to a tube containing 2.5 μl of cell extract. The tube was immediately inserted in a luminometer (Turner Designs) and light emission measured for 10 seconds. The luciferase data were then normalized for protein concentration.

chondrocytes = experiment: Viability of non-proliferating chondrocytes (trypan blue); format: cell-based; conditions: up to 10^−5 M, 72 hours
Source text: While it is important that a disease-modifying agent be capable of strongly inhibiting a variety of inappropriate cellular activities (proliferation, inflammation, proteolytic enzyme production) which occur in excess during the development of chronic inflammation, it must not be toxic to the normal tissues. It is particularly critical that normal cells not be damaged, as this would lead to progression of the disease.

[1] = In vitro release of paclitaxel from polymeric formulations; format: physicochemical; conditions: for paclitaxel released: 10 days in PBS
Method: The tube was incubated at 37° C. with gentle rotational mixing. […] The supernatant (10 ml) was extracted with 1 ml methylene chloride. […] The injection volume was 20 μl and the flow rate was 1 ml/minute.
An equal volume of PBS was replaced in each tube to maintain sink conditions throughout the study.
Sampling daily (three sampling at the first day) to maintain the sink condition.

[2] = system: collagen-induced arthritis
Method: Syngeneic female Louvain rats weighing 120 to 150 grams were injected intradermally with 0.5 mg of native chick collagen II (Genzyme, Boston, Mass.) solubilized in 0.1 M acetic acid and emulsified in FIA (Difco, Detroit, Mich.). […] The control and experimental animals were evaluated for disease severity both clinically and radiographically by individuals blinded to treatment groups.
The severity of inflammation for each limb was evaluated daily and scored based on standardized levels of swelling and periarticular erythema (0 being normal and 4 severe). Animals were evaluated radiographically on day 28 of the experiment. The radiographs of both hind limbs were graded by the degree of soft tissue swelling, joint space narrowing, bone destruction, and periosteal new bone formation. A scale of 0-3 was used to quantify each limb (0=normal, 1=soft tissue swelling, 2=early erosions of bone, 3=severe bone destruction and/or ankylosis). Histological assessment of the joints was completed at the conclusion of the experiment.
Delayed-type hypersensitivity (DTH) to CII was determined by a radiometric ear assay completed on day 28. Radiometric ear indices≧1.4 represent a significant response to CII. The presence of anti-CII IgG antibodies was determined by enzyme-linked immunosorbent assay (ELISA).

skin inflammation = experiment: Mouse ear skin inflammation (oxazolone delayed-type hypersensitivity, PMA)
Method: Briefly, mice were sensitized to oxazolone by topical application of the compound onto the skin. Five days later, mice were challenged with oxazolone by topical application onto the ear skin (left ear: oxazolone, right ear: vehicle alone), resulting in a cutaneous inflammatory, “delayed-type hypersensitivity” reaction. […] Epon-embedded, Giesma-stained, 1 μm tissue sections were evaluated for the presence of inflammatory cells, for the presence of tissue mast cells and their state of activation, and for the degree of epidermal hyperplasia.

CC(=O)O[C@H]1C(=O)[C@@]2(C)[C@H]([C@H](OC(=O)c3ccccc3)[C@]3(O)C[C@H](OC(=O)[C@H](O)[C@@H](NC(=O)c4ccccc4)c4ccccc4)C(C)=C1C3(C)C)[C@]1(OC(C)=O)CO[C@@H]1C[C@@H]2O [paclitaxel]
lysozyme release (neutrophils; 28 μM, plasma opsonized CPPD): reduced lysozyme release | inhibition at 28 µM (neutrophils; Homo sapiens, Neutrophil, 28 μM, opsonized zymosan, after 9 minutes incubation, read-out: inhibition of MPO release): 50% | myeloperoxidase release (neutrophils; plasma opsonized CPPD (FIG. 5A: 28 μM)): significantly inhibited CPPD-induced myeloperoxidase release at all times | inhibitory effect on IL-1- and TNF-induced NF-κB activity (NF-κB): ~2 µM | viability of normal non-proliferating cells (chondrocytes): does not affect the viability | paclitaxel released ([1]; 5 mg of 30% loaded PLLA microspheres): 400 µg | released fraction of total drug content ([1]; 5% paclitaxel loaded PCL microspheres, after 21 days, PBS 37° C.): about 20% | paclitaxel released ([1]; 10% loaded PLLA microspheres): 150 µg | released paclitaxel ([1]; 20% paclitaxel loaded 0:100 PDLLA:PCL (PCL) paste, within 10 days): 6% | released paclitaxel ([1]; 20% paclitaxel loaded 70:30 PDLLA:PCL paste, within 10 days): 11% | released paclitaxel ([1]; 20% paclitaxel loaded 80:20 PDLLA:PCL paste, within 10 days): 17% | released paclitaxel ([1]; 20% paclitaxel loaded 90:10 PDLLA:PCL paste, within 10 hours): 25-35% | released paclitaxel ([1]; 20% paclitaxel loaded PDLLA-PEG-PDLLA cylinder, 20% PEG, 1 mm, 30 days): 2% | released paclitaxel ([1]; 20% paclitaxel loaded PDLLA-PEG-PDLLA cylinder, 30% PEG, 0.65 mm, 30 days): 26% | released paclitaxel ([1]; 20% paclitaxel loaded PDLLA-PEG-PDLLA cylinder, 30% PEG, 1 mm, 30 days, PBS albumin 37° C.): 17% | drug released ([1]; paclitaxel-nylon microcapsules, after 72 hours): more than 95% | radiographic disease ([2]; high- and low-dose suppression groups vs control): significantly less radiographic disease | clinical symptoms ([2]; low- and high-dose suppression protocols, i.p. from day 9): significant clinical improvement | IgG antibodies to type II collagen (ELISA) ([2]; paclitaxel-treated rats vs control group): significantly lower | radiographic changes / clinical arthritis ([2]; prevention protocol): None of the rats in the paclitaxel arthritis prevention protocol manifested any radiographic changes or clinical arthritis | development of arthritis ([2]; prevention protocol: 1 mg/kg i.p. from day 2): completely precluded development of the disease | toxic effects of the treatment ([2]; rat, in vivo): few, if any toxic effects | skin irritation (skin inflammation; 1% paclitaxel formulation, 20 μl to each side of the ears daily for 8 days, normal or inflamed ear skin): no detection of skin irritation | ear swelling and skin erythema induced by PMA (skin inflammation; topical 1% paclitaxel formulation): significantly inhibited ear swelling and skin erythema | ear swelling, delayed-type hypersensitivity reaction (oxazolone) (skin inflammation; topical 1% paclitaxel gel versus vehicle alone): significant decrease in ear swelling
